{
  "source": "patent US10927418B2",
  "about": "“Assays and methods for selecting a treatment regimen for a subject with leukemia” (CELATOR PHARMACEUTICALS, INC., priority 2015, dated 2021)",
  "system": "ME-1 and MOLM-14 cells",
  "assay": "CPX-351 uptake after quizartinib pretreatment",
  "type": "cell-based",
  "procedure": "Uptake of CPX-351 was measured by daunorubicin fluorescence as determined by flow cytometry normalized to untreated control. The x-axis in the graphs depicts the uptake of CPX-351 in standard units of fluorescence and the y-axis represents the normalized cell counts. […] It is clear from FIGS. 9A and 9B that as the pretreatment time is extended, the ability of some of the cells to take up CPX-351 is diminished. The results in FIGS. 9C and 9D are composites of the various timepoints up to 24 hours.",
  "data": [
    {"smiles": "CC(C)(C)c1cc(NC(=O)Nc2ccc(-c3cn4c(n3)sc3cc(OCCN5CCOCC5)ccc34)cc2)no1", "note": "[quizartinib]", "values": [
      {"measurement": "ability of cells to take up CPX-351 as quizartinib pretreatment time is extended", "setting": "10 nM quizartinib for 0, 2, 8, 16 and 24 hours, then CPX-351 for 2 hours", "value": "diminished"},
      {"measurement": "total population of cells exhibiting decreased daunorubicin fluorescence", "setting": "pretreatment with quizartinib for 16 hours", "value": "approximately 50%"}
    ]}
  ]
}
